Test results as given in patent publication EP2057185B1, “POLYMYXIN DERIVATIVES AND USES THEREOF” (Northern Antibiotics Oy, priority 2006, dated 2008).
Bridge positions count the residues as written; N and C are the ends. Square brackets hold non-standard residues; d marks the D form. Peptide text beside a SMILES is read from it. * marks the point of attachment. Octanoyl = CCCCCCCC(=O)*; Dab = NCC[C@H](N)C(=O)O; Abu = CC[C@H](N)C(=O)O

Experiments:
E. coli ATCC25922 = tested on: E. coli ATCC25922
Procedure: (§1) MICs were determined by using E-strips (Biodisk Ltd., Solna, Sweden) according to the manufacturer's instructions.
(§2) The strains originated from ATCC (11 strains), CCUG (11 strains), and NCTC (The National Collection of Type Cultures, Colindale, U.K.; 2 strains). Eight strains (the F-strains) were purchased from Mobidiag Ltd., Helsinki, Finland.

E. cloacae F230 = assay: MIC by E-strips on Mueller-Hinton agar with or without NAB7061 (4 µg/ml); assay type: cell-based, Enterobacter cloacae
Procedure: as §1, §2

E. cloacae F232 = assay: as above; assay type: cell-based, Enterobacter cloacae
Procedure: as §1, §2

E. cloacae CCUG52947 = assay: as above; assay type: cell-based, Enterobacter cloacae
Procedure: as §1, §2

E. coli NCTC13351 = assay: as above; assay type: cell-based, Escherichia coli
Procedure: as §1, §2

S. marcescens ATCC8100 = assay: Growth inhibition around wells on LB agar plates; assay type: cell-based, Serratia marcescens; conditions: growth inhibition area around well
Procedure: From an overnight-grown culture of IH3080 on LB agar, a suspension of approx. 10^8 cells/ml was prepared in 0.9% NaCl. Aliquots of this suspension were then pipetted on the agar plates and the plates were gently shaken to spread the suspension evenly on the entire surface of the plate. Thereafter, the unabsorbed part of the suspension was removed by using a Pasteur pipette. After the surface had dried, small wells (diameter, 2 mm) were drilled on the plates (five wells per plate) by using a sterile sharp-edged narrow metal tube, single-use pipette tip, and vacuum suction. Samples (4 µl and 10 µl) of the peptide solution in 0.9% NaCl (at concentrations of 1 µg/ml and 0.1 µg/ml) were then pipetted to the wells and the sample fluids were allowed to absorb. Controls included 0.9% NaCl solution without the compound to be tested. The plates were then incubated for 18 h at 37°C whereafter the diameters of growth inhibition zones around each well were measured; the diameter of the well itself was […]. Finally, the diameters were converted to surface areas of growth inhibition (in square mm).
The susceptibility of eleven Gram-negative bacterial strains (nine different species) to NAB734 and polymyxin B was compared by using the susceptibility determination method described in Example 2. […]

## Polymyxin B
S. marcescens ATCC8100; 4 µg
  Antibacterial activity 4 µg: 0 square millimeters
S. marcescens ATCC8100; 10 µg
  Antibacterial activity 10 µg: 0 square millimeters
